# Biological target: Ras-related C3 botulinum toxin substrate 1 (Mus musculus, UniProt P63001)
# Test: blockers of fluorescent GTP loading onto wildtype Rac1 – biochemical, pyrazoline analogs, multiplex, flow cytometry, Ki, SAR follow-up (AID 2055)
# Conditions: inactive by the depositor's call
row,Structure (SMILES),EC50
1,"COc1ccc(C2=NN(c3cccc(F)c3)C(c3ccc(OC)cc3)C2)cc1 (stereo not given) [2-(3-fluorophenyl)-3,5-bis(4-methoxyphenyl)-3,4-dihydropyrazole]",30 µM
2,COc1ccc(C2CC(c3ccc(Br)cc3)=NN2c2ccccc2Cl)cc1 (stereo not given) [UNM-0000305832],30 µM
3,NS(=O)(=O)c1ccc(N2N=C(c3ccc(Cl)cc3)CC2c2ccccc2)cc1 (stereo not given),30 µM
4,COc1ccc(C2CC(c3ccccc3)=NN2c2ccc(C(=O)O)cc2)cc1 (stereo not given) [UNM-0000306085],30 µM
5,COc1ccc(-c2cc(-c3ccccc3)nn2-c2ccc(S(N)(=O)=O)cc2)cc1 [4-[5-(4-methoxyphenyl)-3-phenylpyrazol-1-yl]benzenesulfonamide],30 µM
6,"COc1ccc(C2CC(c3ccc(F)cc3)=NN2c2ccc(S(N)(=O)=O)cc2)cc1 (stereo not given) [4-[5-(4-fluorophenyl)-3-(4-methoxyphenyl)-3,4-dihydropyrazol-2-yl]benzenesulfonamide]",30 µM
7,COc1ccc(C2CC(c3ccccc3)=NN2c2ccc(Cl)c(C(=O)O)c2)cc1 (stereo not given),30 µM
8,COc1ccccc1N1N=C(c2ccccc2)CC1c1ccccc1 (stereo not given) [UNM-0000305855],30 µM
9,NS(=O)(=O)c1ccc(N2N=C(c3ccccc3)CC2c2cccc(Cl)c2)cc1 (stereo not given) [UNM-0000306161],30 µM
10,COc1ccc(C2=NN(c3ccccc3)C(c3ccc(OC)c(OC)c3C(=O)O)C2)cc1 (stereo not given) [UNM-0000305848],30 µM
11,CN(C)c1ccc(C2CC(c3ccc(Cl)cc3)=NN2c2ccccc2)cc1 (stereo not given) [UNM-0000305847],30 µM
12,COc1ccc(C2CC(c3ccccc3)=NN2c2ccc(C(N)=O)cc2)cc1 (stereo not given) [UNM-0000305870],30 µM
13,COc1ccc(C2CC(c3ccccc3F)=NN2c2ccc(S(N)(=O)=O)cc2)cc1 (stereo not given) [UNM-0000306110],30 µM
14,"Fc1ccc(C2=NN(c3cccc(Br)c3)C(c3ccccc3)C2)cc1 (stereo not given) [2-(3-bromophenyl)-5-(4-fluorophenyl)-3-phenyl-3,4-dihydropyrazole]",30 µM
15,COc1ccc(C2CC(c3ccccc3C(F)(F)F)=NN2c2ccc(S(N)(=O)=O)cc2)cc1 (stereo not given) [KUC103474N],30 µM
16,COc1ccc(C2CC(c3cccc(C)c3)=NN2c2ccc(S(N)(=O)=O)cc2)cc1 (stereo not given) [UNM-0000306153],30 µM
17,COc1ccc(C2=NN(c3ccc(Cl)cc3)C(c3ccccc3F)C2)cc1 (stereo not given) [UNM-0000305863],30 µM
18,COc1ccc(C2CC(c3cccc(N(C)C)c3)=NN2c2ccc(S(N)(=O)=O)cc2)cc1 (stereo not given),30 µM
19,Brc1ccc(N2N=C(c3ccccc3)CC2c2ccccc2)cc1 (stereo not given),9.53 µM
20,"NS(=O)(=O)c1ccc(N2N=C(c3ccccc3)CC2c2ccc(Cl)cc2)cc1 (stereo not given) [4-[3-(4-chlorophenyl)-5-phenyl-3,4-dihydropyrazol-2-yl]benzenesulfonamide]",30 µM
21,COc1ccc(C2=NN(c3ccccc3)C(c3ccccc3C(F)(F)F)C2)cc1 (stereo not given),30 µM
22,COc1ccc(C2CC(c3ccc(F)cc3)=NN2c2cccc(F)c2)cc1OC (stereo not given),0.027 µM
23,COc1ccc(C2CC(c3ccccc3OC)=NN2c2ccc(S(N)(=O)=O)cc2)cc1 (stereo not given),30 µM
24,NS(=O)(=O)c1ccc(N2N=C(c3ccccc3)CC2c2ccc(Br)cc2)cc1 (stereo not given) [UNM-0000306160],30 µM

row,Structure (SMILES),EC50
1,CC(=O)Oc1ccc(C2=NN(c3ccccc3)C(c3ccccc3)C2)cc1 (stereo not given),5.65 µM
2,"COc1ccc(C2CC(c3ccc(F)cc3)=NN2c2cc(Cl)ccc2Cl)cc1 (stereo not given) [2-(2,5-dichlorophenyl)-5-(4-fluorophenyl)-3-(4-methoxyphenyl)-3,4-dihydropyrazole]",0.089 µM
3,COc1ccc(C2CC(c3cccc(C(F)(F)F)c3)=NN2c2ccc(S(N)(=O)=O)cc2)cc1 (stereo not given),30 µM
4,"Fc1ccccc1C1CC(c2ccc(Br)cc2)=NN1c1ccc(Br)cc1 (stereo not given) [2,5-bis(4-bromophenyl)-3-(2-fluorophenyl)-3,4-dihydropyrazole]",30 µM
5,COc1ccc(C2CC(c3cccs3)=NN2c2ccc(S(N)(=O)=O)cc2)cc1 (stereo not given) [KUC103438N],30 µM
6,Cc1cccc(N2N=C(c3ccccc3)CC2c2ccccc2)c1 (stereo not given) [UNM-0000305835],30 µM
7,"COc1ccc(C2CC(c3ccccc3Cl)=NN2c2ccc(S(N)(=O)=O)cc2)cc1 (stereo not given) [4-[5-(2-chlorophenyl)-3-(4-methoxyphenyl)-3,4-dihydropyrazol-2-yl]benzenesulfonamide]",30 µM
8,"COc1ccc(C2CC(C)=NN2c2ccc(S(N)(=O)=O)cc2)cc1 (stereo not given) [4-[3-(4-methoxyphenyl)-5-methyl-3,4-dihydropyrazol-2-yl]benzenesulfonamide]",30 µM
9,"O=[N+]([O-])c1cccc(C2C[C-](c3ccc(F)cc3)N=[N+]2c2ccccc2)c1 (stereo not given) [5-(4-fluorophenyl)-3-(3-nitrophenyl)-2-phenyl-3,4-dihydropyrazole]",30 µM
10,COc1ccc(C2CC(c3ccccc3)=NN2c2ccc(S(N)(=O)=O)cc2)cc1OC (stereo not given) [UNM-0000305823],13.2 µM
11,COc1ccc(C2CC(c3ccc(N(C)C)cc3)=NN2c2ccc(S(N)(=O)=O)cc2)cc1 (stereo not given) [KUC103422N],30 µM
12,"COc1ccc(C2CC(c3ccsc3)=NN2c2ccc(S(N)(=O)=O)cc2)cc1 (stereo not given) [4-[3-(4-methoxyphenyl)-5-thiophen-3-yl-3,4-dihydropyrazol-2-yl]benzenesulfonamide]",30 µM
13,NS(=O)(=O)c1ccc(N2N=C(c3ccccc3)CC2c2ccccc2Cl)cc1 (stereo not given) [KUC103446N],30 µM
14,"O=S(=O)(c1ccc(N2N=C(c3ccc(Br)cc3)CC2c2ccccc2)cc1)C(F)F (stereo not given) [5-(4-bromophenyl)-2-[4-(difluoromethylsulfonyl)phenyl]-3-phenyl-3,4-dihydropyrazole]",30 µM
15,COc1ccc(C2CC(c3ccc(C)cc3)=NN2c2ccc(S(N)(=O)=O)cc2)cc1 (stereo not given),30 µM
16,COc1ccc(C2CC(c3ccncc3)=NN2c2ccc(S(N)(=O)=O)cc2)cc1 (stereo not given),30 µM
17,CN(C)c1ccc(C2C[C-](c3ccccc3)N=[N+]2c2ccc([N+](=O)[O-])cc2)cc1 (stereo not given),20.4 µM
18,"COc1cccc(C2CC(c3ccccc3)=NN2c2ccc(S(N)(=O)=O)cc2)c1 (stereo not given) [4-[3-(3-methoxyphenyl)-5-phenyl-3,4-dihydropyrazol-2-yl]benzenesulfonamide]",30 µM
19,Cc1ccc(-c2cc(C(F)(F)F)nn2-c2ccc(S(N)(=O)=O)cc2)cc1 [Celecoxib],30 µM
20,FC(F)(F)c1cccc(N2N=C(c3ccc(Cl)cc3)CC2c2ccccc2Cl)c1 (stereo not given) [UNM-0000305859],30 µM
21,COc1ccc(C2CC(c3ccccc3Br)=NN2c2ccc(S(N)(=O)=O)cc2)cc1 (stereo not given) [UNM-0000306112],30 µM
22,"CN(C)c1ccc(C2CC(c3ccccc3)=NN2c2ccccc2)cc1 (stereo not given) [4-(2,5-diphenyl-3,4-dihydropyrazol-3-yl)-N,N-dimethylaniline]",30 µM
23,COc1ccc(C2CC(c3ccc(F)cc3)=NN2c2ccccc2)cc1OC (stereo not given) [UNM-0000305864],30 µM
24,"COc1ccc(C2CC(c3cccc(OC)c3)=NN2c2ccc(S(N)(=O)=O)cc2)cc1 (stereo not given) [4-[5-(3-methoxyphenyl)-3-(4-methoxyphenyl)-3,4-dihydropyrazol-2-yl]benzenesulfonamide]",30 µM

row,Structure (SMILES),EC50
1,CN(C)c1ccc(C2CC(c3ccc(Br)cc3)=NN2c2ccccc2)cc1 (stereo not given) [UNM-0000305846],30 µM
2,"COc1ccc(C2CC(C3CCCCC3)=NN2c2ccc(S(N)(=O)=O)cc2)cc1 (stereo not given) [4-[5-cyclohexyl-3-(4-methoxyphenyl)-3,4-dihydropyrazol-2-yl]benzenesulfonamide]",30 µM
3,"COc1ccc(C2CC(c3ccc(C(F)(F)F)cc3)=NN2c2ccc(S(N)(=O)=O)cc2)cc1 (stereo not given) [4-[3-(4-methoxyphenyl)-5-[4-(trifluoromethyl)phenyl]-3,4-dihydropyrazol-2-yl]benzenesulfonamide]",30 µM
4,COc1ccc(C2CC(c3ccc(Br)cc3)=NN2c2ccc(S(N)(=O)=O)cc2)cc1 (stereo not given) [UNM-0000306138],30 µM
5,Clc1cccc(N2N=C(c3ccccc3)CC2c2ccccc2)c1 (stereo not given),30 µM
6,COc1ccc(C2=NN(c3ccccc3F)C(c3ccc(F)cc3)C2)cc1 (stereo not given) [UNM-0000305860],30 µM
7,CCc1ccc(C2=NN(c3ccc(S(N)(=O)=O)cc3)C(c3ccc(F)cc3)C2)cc1 (stereo not given),30 µM
8,O=[N+]([O-])c1ccc([N+]2=N[C-](c3ccccc3)CC2c2ccc(O)cc2)cc1 (stereo not given) [UNM-0000305838],30 µM
9,"Cc1ccccc1N1N=C(c2ccccc2)CC1c1ccc(N(C)C)cc1 (stereo not given) [N,N-dimethyl-4-[2-(2-methylphenyl)-5-phenyl-3,4-dihydropyrazol-3-yl]aniline]",30 µM
10,COc1ccc(C2CC(c3ccc(Cl)cc3)=NN2c2ccc(S(N)(=O)=O)cc2)cc1 (stereo not given),30 µM
11,O=C(O)c1ccc(N2N=C(c3ccccc3)CC2c2ccccc2)cc1 (stereo not given),54.7 µM
12,Cc1ccc(C2CC(c3ccccc3)=NN2c2ccc(S(N)(=O)=O)cc2)cc1 (stereo not given),30 µM
13,CN(C)c1ccc(C2CC(c3ccc(F)cc3)=NN2c2ccccc2)cc1 (stereo not given) [UNM-0000305866],30 µM
14,O=S(=O)(c1ccc(N2N=C(c3ccccc3)CC2c2ccccc2)cc1)C(F)F (stereo not given),30 µM
15,"COc1ccc(C2CC(c3cccc(F)c3)=NN2c2ccc(S(N)(=O)=O)cc2)cc1 (stereo not given) [4-[5-(3-fluorophenyl)-3-(4-methoxyphenyl)-3,4-dihydropyrazol-2-yl]benzenesulfonamide]",30 µM
16,"COc1ccc(C2CC(c3ccccc3)=NN2c2ccc(Cl)c(C(=O)O)c2)cc1OC (stereo not given) [2-chloro-5-[3-(3,4-dimethoxyphenyl)-5-phenyl-3,4-dihydropyrazol-2-yl]benzoic acid]",30 µM
17,"NS(=O)(=O)c1ccc(N2N=C(c3ccccc3)CC2c2ccccc2Br)cc1 (stereo not given) [4-[3-(2-bromophenyl)-5-phenyl-3,4-dihydropyrazol-2-yl]benzenesulfonamide]",30 µM
18,Cc1ccccc1[N+]1=N[C-](c2ccccc2)CC1c1cccc([N+](=O)[O-])c1 (stereo not given) [UNM-0000305854],30 µM
19,"COc1ccccc1C1CC(c2ccccc2)=NN1c1ccc(S(N)(=O)=O)cc1 (stereo not given) [4-[3-(2-methoxyphenyl)-5-phenyl-3,4-dihydropyrazol-2-yl]benzenesulfonamide]",30 µM
20,"COc1ccc(C2C[C-](c3ccccc3)N=[N+]2c2ccc([N+](=O)[O-])cc2)cc1 (stereo not given) [3-(4-methoxyphenyl)-2-(4-nitrophenyl)-5-phenyl-3,4-dihydropyrazole]",30 µM
21,COc1ccc(C2CC(c3cccnc3)=NN2c2ccc(S(N)(=O)=O)cc2)cc1 (stereo not given),30 µM
22,Cc1cccc(C2CC(c3ccccc3)=NN2c2ccc(S(N)(=O)=O)cc2)c1 (stereo not given),30 µM

# — BindingDB's records for doi:10.7270/Q2959G0B (Nmmlsc, 2009)
